Assay results published in patent publication US20120029187A1, “HALOALKYLSULFONANILIDE DERIVATIVE” (Nissan Chemical Industries, Ltd., priority 2009, published 2012).

Key:
Type in all cases: in vivo
ducksalad [1] = assay: Test Example 1: herbicidal effects in preemergence treatment under submerged conditions; details: dose 2.52 g/a
In short: (§1)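 Weed seeds and 2.5-leaf rice seedlings shared each flooded cup of alluvial soil. Dosing, expressed as g per are, was by pouring water-diluted emulsifiable concentrate onto the surface on sowing day. Mortality was graded 0 to 5 after three weeks' growth.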

bulrush [2] = assay: as above; details: dose 2.52 g/a
In short: as §1

barnyardgrass [3] = assay: as above; details: dose 2.52 g/a
In short: as §1

giant foxtail [4] = assay: Test Example 3: herbicidal effects in soil treatment
In short: (§2)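 Seeds were sown in sterilized diluvial soil and covered with about 1.5 cm of soil. Compounds, formulated as emulsifiable concentrates and diluted with water, were sprayed evenly over the soil surface at set doses in g/a. Herbicidal effect was scored on a rating scale three weeks later.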

common chickweed [5] = assay: as above
In short: as §2

Italian ryegrass [6] = assay: as above
In short: as §2

redroot pigweed [7] = assay: as above
In short: as §2

common ragweed [8] = assay: as above
In short: as §2

wild oat [9] = assay: as above; details: dose 6.3 g/a
In short: as §2

common lambsquater [10] = assay: as above
In short: as §2

large crabgrass [11] = assay: as above
In short: as §2

barnyardgrass [12] = assay: as above
In short: as §2

water foxtail [13] = assay: as above
In short: as §2

ducksalad [14] = assay: Test Example 2: herbicidal effects during the vegetation period under submerged conditions; details: treatment during the vegetation period under submerged conditions; dose 2.52 g/a
In short: (§3)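 Barnyardgrass, bulrush and ducksalad were co-sown in alluvial soil flooded to 4 cm and grown in a greenhouse at 25 to 30° C. At the 1- or 2-leaf stage, water-diluted emulsifiable concentrates went onto the water surface at set doses (g/a). Herbicidal effect was scored three weeks later on a graded scale.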

bulrush [15] = assay: as above; details: treatment during the vegetation period under submerged conditions; dose 2.52 g/a
In short: as §3

barnyardgrass [16] = assay: as above; details: treatment during the vegetation period under submerged conditions; dose 2.52 g/a
In short: as §3

beadstraw = assay: Test Example 4: herbicidal effect in foliage treatment
In short: (§4)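 Seeds were spot-sown in boxes of sterilized diluvial soil and raised in a greenhouse (25 to 30° C) for 14 days before a single foliar application. Compounds were applied as emulsifiable concentrates diluted with water, at predetermined doses in g/a. Injury was graded three weeks post-spray.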

giant foxtail [17] = assay: as above
In short: as §4

common chickweed [18] = assay: as above
In short: as §4

Italian ryegrass [19] = assay: as above
In short: as §4

redroot pigweed [20] = assay: as above
In short: as §4

common ragweed [21] = assay: as above
In short: as §4

wild oat [22] = assay: as above
In short: as §4

common lambsquater [23] = assay: as above
In short: as §4

large crabgrass [24] = assay: as above
In short: as §4

barnyardgrass [25] = assay: as above
In short: as §4

water foxtail [26] = assay: as above
In short: as §4

posumbu knotweed [27] = assay: Test Example 3: herbicidal effects in soil treatment; details: dose 3.2 g/a
In short: as §2

transplanted rice = assay: Test Example 1: preemergence treatment under submerged conditions, effect on crop; details: dose 2.52 g/a
In short: as §1

posumbu knotweed [28] = assay: Test Example 4: herbicidal effect in foliage treatment; details: dose 3.2 g/a, three weeks after application
In short: as §4

velvetleaf = assay: as above; details: dose 3.2 g/a, three weeks after application
In short: as §4

[29] = dose 6.3 g/a, three weeks after the application
[30] = dose 3.2 g/a, three weeks after application

Question: For O=C1CCOCCN1Cc1ccccc1NS(=O)(=O)C(F)(F)F [Compound V-1], which “C: ducksalad, herbicidal effect (evaluation scale 0-5)” value (ducksalad [1]) is on record?
Answer: 5 (mortality of 90% or above (nearly complete death))

Question: And the “B: bulrush, herbicidal effect (evaluation scale 0-5)” value (bulrush [2])?
Answer: 5 (mortality of 90% or above (nearly complete death))

Question: What about the “A: barnyardgrass, herbicidal effect (evaluation scale 0-5)” value (barnyardgrass [3]) of the same molecule?
Answer: 5 (mortality of 90% or above (nearly complete death))

Question: What about the “herbicidal effect, E: giant foxtail” value (giant foxtail [4]; dose 6.3 g/a) of the same molecule?
Answer: 4 (mortality of at least 70% and less than 90%)

Question: And the “herbicidal effect, N: common chickweed” value (common chickweed [5]; dose 6.3 g/a)?
Answer: 5 (mortality of 90% or above (nearly complete death))

Question: And the “herbicidal effect, H: Italian ryegrass” value (Italian ryegrass [6]; dose 6.3 g/a)?
Answer: 3 (mortality of at least 40% and less than 70%)

Question: And the “herbicidal effect, K: redroot pigweed” value (redroot pigweed [7]; dose 6.3 g/a)?
Answer: 4 (mortality of at least 70% and less than 90%)

Question: And the “herbicidal effect, J: common ragweed” value (common ragweed [8]; dose 6.3 g/a)?
Answer: 5 (mortality of 90% or above (nearly complete death))

Question: What about the “herbicidal effect, F: wild oat” value (wild oat [9]) of the same molecule?
Answer: 3 (mortality of at least 40% and less than 70%)

Question: And the “herbicidal effect, L: common lambsquater” value (common lambsquater [10]; dose 6.3 g/a)?
Answer: 5 (mortality of 90% or above (nearly complete death))

Question: What about the “herbicidal effect, D: large crabgrass” value (large crabgrass [11]; dose 6.3 g/a) of the same molecule?
Answer: 0 (mortality of less than 5% (almost ineffective))

Question: What about the “herbicidal effect, A: barnyardgrass” value (barnyardgrass [12]; dose 6.3 g/a) of the same molecule?
Answer: 5 (mortality of 90% or above (nearly complete death))

Question: And the “herbicidal effect, G: water foxtail” value (water foxtail [13]; dose 6.3 g/a)?
Answer: 5 (mortality of 90% or above (nearly complete death))

Question: What about the “C: ducksalad, herbicidal effect (evaluation scale 0-5)” value (ducksalad [14]) of the same molecule?
Answer: 5 (mortality of 90% or above (nearly complete death))

Question: What about the “B: bulrush, herbicidal effect (evaluation scale 0-5)” value (bulrush [15]) of the same molecule?
Answer: 5 (mortality of 90% or above (nearly complete death))

Question: What about the “A: barnyardgrass, herbicidal effect (evaluation scale 0-5)” value (barnyardgrass [16]) of the same molecule?
Answer: 5 (mortality of 90% or above (nearly complete death))

Question: What about the “O: beadstraw, herbicidal effect” value (beadstraw; [29]) of the same molecule?
Answer: 4 (mortality of at least 70% and less than 90%)

Question: What about the “E: giant foxtail, herbicidal effect” value (giant foxtail [17]; [29]) of the same molecule?
Answer: 5 (mortality of 90% or above (nearly complete death))

Question: What about the “N: common chickweed, herbicidal effect” value (common chickweed [18]; [29]) of the same molecule?
Answer: 4 (mortality of at least 70% and less than 90%)

Question: What about the “H: Italian ryegrass, herbicidal effect” value (Italian ryegrass [19]; [29]) of the same molecule?
Answer: 3 (mortality of at least 40% and less than 70%)

Question: And the “K: redroot pigweed, herbicidal effect” value (redroot pigweed [20]; [29])?
Answer: 1 (mortality of at least 5% and less than 20%)

Question: What about the “J: common ragweed, herbicidal effect” value (common ragweed [21]; [29]) of the same molecule?
Answer: 5 (mortality of 90% or above (nearly complete death))

Question: What about the “F: wild oat, herbicidal effect” value (wild oat [22]; [29]) of the same molecule?
Answer: 0 (mortality of less than 5% (almost ineffective))

Question: And the “L: common lambsquater, herbicidal effect” value (common lambsquater [23]; [29])?
Answer: 4 (mortality of at least 70% and less than 90%)

Question: And the “D: large crabgrass, herbicidal effect” value (large crabgrass [24]; [29])?
Answer: 4 (mortality of at least 70% and less than 90%)

Question: What about the “A: barnyardgrass, herbicidal effect” value (barnyardgrass [25]; [29]) of the same molecule?
Answer: 5 (mortality of 90% or above (nearly complete death))

Question: And the “G: water foxtail, herbicidal effect” value (water foxtail [26]; [29])?
Answer: 5 (mortality of 90% or above (nearly complete death))

Question: What does the source list for CCOC(=O)N(c1ccccc1CN1COC(c2ccccc2)CC1=O)S(=O)(=O)C(F)(F)F (stereo not drawn) [II-10]?
Answer: C: ducksalad, herbicidal effect (evaluation scale 0-5) (ducksalad [1]): 5 (mortality of 90% or above (nearly complete death)); B: bulrush, herbicidal effect (evaluation scale 0-5) (bulrush [2]): 5 (mortality of 90% or above (nearly complete death)); A: barnyardgrass, herbicidal effect (evaluation scale 0-5) (barnyardgrass [3]): 5 (mortality of 90% or above (nearly complete death)); E: giant foxtail, herbicidal effect (evaluation scale 0-5) (giant foxtail [4]; dose 3.2 g/a): 4 (mortality of at least 70% and less than 90%); M: posumbu knotweed, herbicidal effect (evaluation scale 0-5) (posumbu knotweed [27]): 0 (mortality of less than 5% (almost ineffective)); N: common chickweed, herbicidal effect (evaluation scale 0-5) (common chickweed [5]; dose 3.2 g/a): 5 (mortality of 90% or above (nearly complete death)); H: Italian ryegrass, herbicidal effect (evaluation scale 0-5) (Italian ryegrass [6]; dose 3.2 g/a): 2 (mortality of at least 20% and less than 40%); K: redroot pigweed, herbicidal effect (evaluation scale 0-5) (redroot pigweed [7]; dose 3.2 g/a): 0 (mortality of less than 5% (almost ineffective)); J: common ragweed, herbicidal effect (evaluation scale 0-5) (common ragweed [8]; dose 3.2 g/a): 0 (mortality of less than 5% (almost ineffective)); L: common lambsquater, herbicidal effect (evaluation scale 0-5) (common lambsquater [10]; dose 3.2 g/a): 3 (mortality of at least 40% and less than 70%); D: large crabgrass, herbicidal effect (evaluation scale 0-5) (large crabgrass [11]; dose 3.2 g/a): 4 (mortality of at least 70% and less than 90%); A: barnyardgrass, herbicidal effect (evaluation scale 0-5) (barnyardgrass [12]; dose 3.2 g/a): 4 (mortality of at least 70% and less than 90%); G: water foxtail, herbicidal effect (evaluation scale 0-5) (water foxtail [13]; dose 3.2 g/a): 5 (mortality of 90% or above (nearly complete death)); C: ducksalad, herbicidal effect (evaluation scale 0-5) (ducksalad [14]): 5 (mortality of 90% or above (nearly complete death)); B: bulrush, herbicidal effect (evaluation scale 0-5) (bulrush [15]): 5 (mortality of 90% or above (nearly complete death)); A: barnyardgrass, herbicidal effect (evaluation scale 0-5) (barnyardgrass [16]): 4 (mortality of at least 70% and less than 90%); a: transplanted rice, effect on crop (evaluation scale 0-5) (transplanted rice): 0 (mortality of less than 5% (almost ineffective)); O: beadstraw, herbicidal effect (beadstraw; [30]): 3 (mortality of at least 40% and less than 70%); E: giant foxtail, herbicidal effect (giant foxtail [17]; [30]): 3 (mortality of at least 40% and less than 70%); M: posumbu knotweed, herbicidal effect (posumbu knotweed [28]): 4 (mortality of at least 70% and less than 90%); N: common chickweed, herbicidal effect (common chickweed [18]; [30]): 4 (mortality of at least 70% and less than 90%); H: Italian ryegrass, herbicidal effect (Italian ryegrass [19]; [30]): 1 (mortality of at least 5% and less than 20%); K: redroot pigweed, herbicidal effect (redroot pigweed [20]; [30]): 0 (mortality of less than 5% (almost ineffective)); J: common ragweed, herbicidal effect (common ragweed [21]; [30]): 3 (mortality of at least 40% and less than 70%); F: wild oat, herbicidal effect (wild oat [22]; [30]): 0 (mortality of less than 5% (almost ineffective)); I: velvetleaf, herbicidal effect (velvetleaf): 4 (mortality of at least 70% and less than 90%); L: common lambsquater, herbicidal effect (common lambsquater [23]; [30]): 3 (mortality of at least 40% and less than 70%); D: large crabgrass, herbicidal effect (large crabgrass [24]; [30]): 0 (mortality of less than 5% (almost ineffective)); A: barnyardgrass, herbicidal effect (barnyardgrass [25]; [30]): 4 (mortality of at least 70% and less than 90%); G: water foxtail, herbicidal effect (water foxtail [26]; [30]): 4 (mortality of at least 70% and less than 90%)
